Data taken from PubChem BioAssay (NCI).
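1) Cells in 96-well plates. 2) Compound, 48 h, 5 concentrations. 3) Linear interpolation between surrounding doses. 4) Unreached endpoint = highest concentration. TGI: total growth inhibition.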

Legend:
Assay in all cases: NCI tumour cell line growth inhibition, 48 h
[1] = test system: SK-MEL-5 melanoma
[2] = test system: LOX IMVI melanoma
[3] = test system: DU-145 prostate
[4] = test system: UACC-257 melanoma
[5] = test system: KM12 colon
[6] = test system: MALME-3M melanoma
[7] = test system: SR leukemia
[8] = test system: PC-3 prostate
[9] = test system: NCI-H460 lung
[10] = test system: MDA-MB-231 breast
[11] = test system: SF-268 CNS

Structure (SMILES) | TGI [1] [µM] | TGI [2] [µM] | TGI [3] [µM] | TGI [4] [µM] | TGI [5] [µM] | TGI [6] [µM] | TGI [7] [µM] | TGI [8] [µM] | TGI [9] [µM] | TGI [10] [µM] | TGI [11] [µM]
OCCCCCNc1c2ccccc2nc2ccccc12 | 3.95 | 4.7 | 25.3 | 4.77 | 14.3 | 4.15 | > 23.2 | 7.2 | 3.5 | 10.7 | 11.4
CC(CN1c2ccccc2Sc2ccccc21)N(C)C (configuration not stated) | 35.6 | 35.9 | 34.9 | 39.4 | 37.6 | 34.5 | 40.9 | 31.2 | 36 | 32.4 | 33.5
CC(=O)OCC(C)C1=C(O)C(=O)C2(C)C/C=C(/C)CC/C=C(\C)CCC(O)C(C)CCC12 (configuration not stated) | 32.1 | 33.1 | 31.7 | 33.6 | 28.7 | 31.8 | 34.9 | 38.1 | 32 | 30.4 | 35.4
C[N+]1=C2[B-](C(C)(C)C)=[N+](C(C)(C)C)[B-]2(C(C)(C)C)[N+](C)=C2[B-](C(C)(C)C)=[N+](C(C)(C)C)[B-]21C(C)(C)C (configuration not stated) | > 100 | > 100 | > 100 | > 100 | > 100 | > 100 | > 100 | > 100 | > 100 | > 100 | > 100
COc1cccc(-c2cc(=O)c3ccccc3o2)c1N | > 100 | > 100 | > 100 | > 100 | > 100 | > 56 | > 100 | > 100 | > 100 | > 100 | > 100
COc1cccc2c(N)c3cccc(C(=O)NCCN(C)C)c3nc12 | 2.08 | 0.472 | 2.64 | 3.41 | 3.59 | 0.501 | 1.12 | 1.7 | 1.72 | 0.853 | 0.51
CCCCN1C(=O)CC2[C@@H]3CCc4cc(OC(C)=O)ccc4C3CC[C@]2(C)C1=O (some centres not stated) | > 10 | > 10 | > 10 | > 10 | > 10 | > 10 | > 10 | > 10 | > 10 | > 10 | > 10
